Results published in patent US20240109918A1, “HETEROCYCLIC COMPOUNDS AND USES THEREOF” (Kumquat Biosciences Inc., priority 2022, published 2024).

Columns and labels:
KRASG12D = molecular target: T1, KRASG12D (Homo sapiens, UniProt P01116, G12D); assay: Bio-Biochem-PPI-HTRF Ras-SOS1 interaction assay (KRAS G12D); format: biochemical; details: 5 nM
T1 construct: made in house; host or cells: E. coli BL21 (DE3)
Method in brief: (§1)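 GST-tagged K-Ras (wt or G12D) with anti-GST-Eu(K) donor was mixed with His-hSOS1 and anti-6His-XL665 acceptor in HEPES pH 7.4/NaCl/DTT/BSA/Igepal buffer, with compound in duplicate from 10 μM down to 0.01 μM. After about 10 min or longer, HTRF 665/620 nm ratio gave IC50.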

KRASwt = molecular target: T2, KRASwt (Homo sapiens, UniProt P01116); assay: Bio-Biochem-PPI-HTRF Ras-SOS1 interaction assay (KRAS wt); format: biochemical; details: 5 nM
T2 construct: made in house; host or cells: E. coli BL21 (DE3)
T2 sequence (P01116 1-188 isoform P01116-2): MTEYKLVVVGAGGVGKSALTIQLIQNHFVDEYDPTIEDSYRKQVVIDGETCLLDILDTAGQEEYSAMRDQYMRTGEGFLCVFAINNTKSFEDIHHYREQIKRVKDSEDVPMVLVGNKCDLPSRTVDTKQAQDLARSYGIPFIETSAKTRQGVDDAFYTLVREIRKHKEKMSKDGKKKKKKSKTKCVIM
Method in brief: as §1

T1 sequence (P01116 1-188 isoform P01116-2 G12D): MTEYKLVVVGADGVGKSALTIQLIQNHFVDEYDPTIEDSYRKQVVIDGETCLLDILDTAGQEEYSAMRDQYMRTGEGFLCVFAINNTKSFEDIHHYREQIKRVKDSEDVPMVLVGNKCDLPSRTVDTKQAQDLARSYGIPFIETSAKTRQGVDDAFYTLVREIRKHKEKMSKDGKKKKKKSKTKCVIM

IC50 (KRASG12D) | IC50 (KRASwt) | Compound
< 5 µM | < 5 µM | N#Cc1c(N)sc2c(F)ccc(-c3c(Cl)cc4c(N5CC6(CN(C(=O)C7CC7(F)F)C6)C5)nc(OC[C@@]56CCCN5C[C@H](F)C6)nc4c3F)c12 (stereo partly drawn) [compound 219, 2-amino-4-(6-chloro-4-(6-(2,2-difluorocyclopropane-1-carbonyl)-2,6-diazaspiro[3.3]heptan-2-yl)-8-fluoro-2-(((2R,7aS)-2-fluorotetrahydro-1H-pyrrolizin-7a(5H)-yl)methoxy)quinazolin-7-yl)-7-fluorobenzo[b]thiophene-3-carbonitrile]
< 5 µM | < 5 µM | N#Cc1c(N)sc2c(F)ccc(-c3c(Cl)cc4c(N5CCCCC6(CN(C(=O)C7C8CCOC87)C6)C5)nc(OC[C@@]56CCCN5C[C@H](F)C6)nc4c3F)c12 (stereo partly drawn) [compound 270, 4-(4-(2-(2-oxabicyclo[3.1.0]hexane-6-carbonyl)-2,6-diazaspiro [3.6]decan-6-yl)-6-chloro-8-fluoro-2-(((2R,7aS)-2-fluorotetrahydro-1H-pyrrolizin-7a(5H)-yl)methoxy)quinazolin-7-yl)-2-amino-7-fluorobenzo[b]thiophene-3-carbonitrile]
< 5 µM | < 5 µM | Cn1nccc1C(=O)N1CC2(CCCCN(c3nc(OC[C@@]45CCCN4C[C@H](F)C5)nc4c(F)c(-c5ccc(F)c6sc(N)c(C#N)c56)c(Cl)cc34)C2)C1 [compound 134, 2-amino-4-(6-chloro-8-fluoro-2-(((2R,7aS)-2-fluorotetrahydro-1H-pyrrolizin-7a(5H)-yl)methoxy)-4-(2-(1-methyl-1H-pyrazole-5-carbonyl)-2,6-diazaspiro[3.6]decan-6-yl)quinazolin-7-yl)-7-fluorobenzo[b]thiophene-3-carbonitrile]
< 5 µM | < 5 µM | N#Cc1c(N)sc2c(F)ccc(-c3c(Cl)cc4c(N5CCCCC6(CN(C(=O)N7CC(F)(F)C7)C6)C5)nc(OC[C@@]56CCCN5C[C@H](F)C6)nc4c3F)c12 [compound 298, 2-amino-4-(6-chloro-4-(2-(3,3-difluoroazetidine-1-carbonyl)-2,6-diazaspiro[3.6]decan-6-yl)-8-fluoro-2-(((2R,7aS)-2-fluorotetrahydro-1H-pyrrolizin-7a(5H)-yl)methoxy)quinazolin-7-yl)-7-fluorobenzo[b]thiophene-3-carbonitrile]
< 5 µM | < 5 µM | N#Cc1c(N)sc2c(F)ccc(-c3c(Cl)cc4c(N5CCCCC6(CN(C(=O)C(F)Cl)C6)C5)nc(OC[C@@]56CCCN5C[C@H](F)C6)nc4c3F)c12 (stereo partly drawn) [compound 251, 2-amino-4-(6-chloro-4-(2-(2-chloro-2-fluoroacetyl)-2,6-diazaspiro [3.6]decan-6-yl)-8-fluoro-2-(((2R,7aS)-2-fluorotetrahydro-1H-pyrrolizin-7a(5H)-yl)methoxy)quinazolin-7-yl)-7-fluorobenzo[b]thiophene-3-carbonitrile]
< 5 µM | < 5 µM | N#Cc1c(N)sc2c(F)ccc(-c3c(Cl)cc4c(N5CCCCC6(CN(C(=O)C7CCC7F)C6)C5)nc(OC[C@@]56CCCN5C[C@H](F)C6)nc4c3F)c12 (stereo partly drawn) [compound 160, 2-amino-4-(6-chloro-8-fluoro-4-(2-(2-fluorocyclobutane-1-carbonyl)-2,6-diazaspiro[3.6]decan-6-yl)-2-(((2R,7aS)-2-fluorotetrahydro-1H-pyrrolizin-7a(5H)-yl)methoxy)quinazolin-7-yl)-7-fluorobenzo[b]thiophene-3-carbonitrile]

The next lines start with the molecule.

Compound | IC50 (KRASG12D) | IC50 (KRASwt)
N#Cc1c(N)sc2c(F)ccc(-c3c(Cl)cc4c(N5CCC(OC(F)F)CC6(CN(C(=O)[C@@H]7CC7(F)F)C6)C5)nc(OC[C@@]56CCCN5C[C@H](F)C6)nc4c3F)c12 (stereo partly drawn) [compound 313, 2-amino-4-(6-chloro-4-(2-((S)-2,2-difluorocyclopropane-1-carbonyl)-9-(difluoromethoxy)-2,6-diazaspiro[3.6]decan-6-yl)-8-fluoro-2-(((2R,7aS)-2-fluorotetrahydro-1H-pyrrolizin-7a(5H)-yl)methoxy)quinazolin-7-yl)-7-fluorobenzo[b]thiophene-3-carbonitrile] | < 5 µM | < 5 µM
Nc1nc2c(-c3c(Cl)cc4c(N5CCC6(CC5)CN(C(=O)C(F)F)C6)nc(OC[C@@]56CCCN5C[C@H](F)C6)nc4c3F)ccc(F)c2s1 [compound 139, 1-(7-(7-(2-amino-7-fluorobenzo[d]thiazol-4-yl)-6-chloro-8-fluoro-2-(((2R,7aS)-2-fluorotetrahydro-1H-pyrrolizin-7a(5H)-yl)methoxy)quinazolin-4-yl)-2,7-diazaspiro[3.5]nonan-2-yl)-2,2-difluoroethan-1-one] | < 5 µM | < 5 µM
CN1CCC[C@H]1COc1nc(N2CCCC3(CNC3)C2)c2cc(Cl)c(-c3cccc4sc(N)nc34)c(F)c2n1 [compound 172, 4-(6-chloro-8-fluoro-2-(((S)-1-methylpyrrolidin-2-yl)methoxy)-4-(2,6-diazaspiro[3.5]nonan-6-yl)quinazolin-7-yl)benzo[d]thiazol-2-amine] | < 5 µM | < 5 µM
Cc1ccnc(C(C)C)c1-n1c(=O)nc(N2CCOC3(CNC3)C2)c2cc(F)c(-c3c(O)cccc3F)nc21 [compound 112, 6-fluoro-7-(2-fluoro-6-hydroxyphenyl)-1-(2-isopropyl-4-methylpyridin-3-yl)-4-(5-oxa-2,8-diazaspiro[3.5]nonan-8-yl)pyrido[2,3-d]pyrimidin-2(1H)-one] | ≥ 5 µM | ≥ 5 µM
C#Cc1c(F)ccc2cc(O)cc(-c3ncc4c(N5CCCC6(CN(C(=O)[C@@H]7C[C@H]7C#N)C6)C5)nc(OC[C@@]56CCCN5C[C@H](F)C6)nc4c3F)c12 [compound 164, (1R,2R)-2-(6-(7-(8-ethynyl-7-fluoro-3-hydroxynaphthalen-1-yl)-8-fluoro-2-(((2R,7aS)-2-fluorotetrahydro-1H-pyrrolizin-7a(5H)-yl)methoxy)pyrido [4,3-d]pyrimidin-4-yl)-2,6-diazaspiro[3.5]nonane-2-carbonyl)cyclopropane-1-carbonitrile] | < 5 µM | < 5 µM
Nc1nc2c(-c3c(Cl)cc4c(N5CCOC6(CNC6)C5)nc(OC[C@@]56CCCN5C[C@H](F)C6)nc4c3F)ccc(F)c2s1 [compound 107, 4-(6-chloro-8-fluoro-2-(((2R,7aS)-2-fluorotetrahydro-1H-pyrrolizin-7a(5H)-yl)methoxy)-4-(5-oxa-2,8-diazaspiro[3.5]nonan-8-yl)quinazolin-7-yl)-7-fluorobenzo[d]thiazol-2-amine] | < 5 µM | < 5 µM
N#Cc1c(N)sc2c(F)ccc(-c3c(Cl)cc4c(N5CCCCC6(CN(C(=O)c7ccnn7CC(F)F)C6)C5)nc(OC[C@@]56CCCN5C[C@H](F)C6)nc4c3F)c12 [compound 208, 2-amino-4-(6-chloro-4-(2-(1-(2,2-difluoroethyl)-1H-pyrazole-5-carbonyl)-2,6-diazaspiro[3.6]decan-6-yl)-8-fluoro-2-(((2R,7aS)-2-fluorotetrahydro-1H-pyrrolizin-7a(5H)-yl)methoxy)quinazolin-7-yl)-7-fluorobenzo[b]thiophene-3-carbonitrile] | < 5 µM | < 5 µM
